# Measurements reported in patent publication US20110092488A1, “Quninoline Methanol Compounds for the Treatment and Prevention of Parasitic Infections” (priority 2005, published 2011).
# Tests used:
# AMRU1 strain of P. vivax = experiment: Efficacy in P. vivax-challenged Aotus monkeys; assay type: in vivo, Plasmodium vivax in Aotus lemurinus lemurinus; settings: oral; for Outcome: Aotus
# Protocol: The P. berghei-mouse efficacy data were obtained from the WRAIR chemical information system (subcutaneous testing) or from recent tests conducted at AFRIMS, Thailand or at the University of Miami using a modified version of the Thompson test. Groups of five mice were inoculated through i.p. injection on day 0 (usually with 1×106 P. berghei-parasitized erythrocytes). The drugs in Table 1 were administered either subcutaneously or orally for three days (usually on days 3-5) at doses of 1.25-160 mg/kg in two to four fold increments. Cure was defined as survival until day 60 (subcutaneous dosing) or day 31 post-treatment (oral dosing). […] The minimum effective dose was the lowest dose level that cured at least one of five mice. The Aotus studies were performed according to Obaldia; Detection of Klebsiella pnuumoniae antibodies in Aotus l. lemurinus (Panamanian owl monkey) using an enzyme linked immunosorbent assay (ELIA) test; Lab Anim (25)133-141 (1991) and Obaldia et al., WR 238605, chloroquine, and their combinations as blood schizonticides against a chloroquine-resistant strain of Plasmodium vivax in Aotus monkeys; Am. J. Trop. Med. Hyg. (56)508-510 (1997), which are incorporated by reference, herein. Groups of two Aotus lemurinus 6 lemurinus of the karyotype VIII or IX (27) male and female monkeys with weights ranging from 742-970 g were inoculated with 5×10^6 parasites of either the FVO strain of P. falciparum or the AMRU1 strain of P. vivax. Both of these strains are chloroquine resistant. […] Monkeys were examined and thick Giemsa-stained blood smears were prepared and enumerated daily (17) to monitor the course of infection. […] In some instances, a high dose of the test drug was used to retreat monkeys instead of the mefloquine rescue. Monkeys are considered cured if they are parasite free 90 days post treatment. […] Plasma samples were taken from the monkeys in some studies for quantification of metabolites. Additional blood samples were taken as appropriate for complete blood counts and serum chemistry. Research was conducted in compliance with the Animal Welfare Act and other federal statutes and regulations relating to animals and experiments involving animals and adheres to principles stated in the Guide for the Care and Use of Laboratory Animals, NRC Publication, 1996 edition (34).
# [1] = Aotus, 10 mg/kg/day oral x7
# [2] = test system: Balb/c 3T3 mouse fibroblast cells; experiment: 3T3 neutral red uptake (NRU) phototoxicity test; assay type: cell-based
# Description: A pharmacophore for phototoxicity was developed to be used as an in silico screening tool to determine the minimum phototoxic concentration for a number of AAQMS (WR069878 and those indicated in Table 5). Minimum phototoxic concentration in a yeast assay for a number of AAQMS, as per Ison et al.; Phototoxicity of Quinoline methanols and other drugs in mice and yeast; J. Invest. Dermatol. (52)193-198 (1969) were used to generate a three-dimensional pharmacophore model using the HypoGen algorithm of the […]® (Accelrys software Inc.) methodology as per Bhattacharjee et al.; A 3D QSAR pharmacophore model and quantum chemical structure—activity analysis of chloroquine(CQ)-resistance reversal; J. Chem Inf. Comput Sci. (42) 1212-1220 (2002), and Dow et al.; as discussed in Antimicrob Agents Chemother. (48)2624-2632 (2004), cited above, both Bhattacharjee et al. and Dow et al, incorporated herein, by reference. The structures of clinically used quinoline methanols were mapped onto the pharmacophores and estimated values for minimum phototoxic concentration were generated. The 3T3 neutral red uptake (NRU) phototoxicity test, conducted by MB Research Laboratories (Spinnerstown, Pa.), was used to identify quinoline methanols (WR069878 and those in Table 5) that have the potential to exert in vivo phototoxicity after systemic application. Briefly, the central 60 wells of two 96-well plates per AAQM were seeded with Balb/c 3T3 mouse fibroblast cells and maintained in culture for 24 hrs. These plates were then pre-incubated with a range of eight different concentrations of test compound (six wells per concentration) for one hour. Next, one plate was treated with a UVA dose of 5 J/cm2 by irradiating for 50 min at 1.7 mW/cm2, whereas the other plate remained non-treated and in the dark. Next, the treatment medium was replaced with culture medium and cell viability was determined after 24 hrs by measuring neutral red uptake for 3 hrs. Finally, the 3T3 NRU Phototox Prediction Software (version 2.0, ZEBET) was used to calculate EC50 values and Photo-Irritant Factors (PIF) for each compound. […]
# P. falciparum TM90C2A = experiment: In vitro antimalarial activity against P. falciparum TM90C2A; assay type: cell-based, Plasmodium falciparum
# Protocol: (§1) The in vitro activities of AAQMs against P. falciparum strains W2, D6, TM91C235 and TM90C2A were evaluated using the method of Desjardins et al. as modified by Milhous et al. W2 is chloroquine resistant and mefloquine sensitive, D6 is chloroquine sensitive but naturally less susceptible to mefloquine, TM91C235 is resistant to mefloquine, chloroquine and pyrimethamine as is TM90C2A, however this latter parasite is a two pfmdr1 copy strain. We routinely run mefloquine in this screen as a control to ensure assay validity.
# P. falciparum TM91C235 = experiment: In vitro antimalarial activity against P. falciparum TM91C235; assay type: cell-based, Plasmodium falciparum
# P. falciparum D6 = experiment: In vitro antimalarial activity against P. falciparum D6; assay type: cell-based, Plasmodium falciparum
# Protocol: as §1
# The combined effects of azithromycin (as represented by compound 196 on the horizontal axes of FIG. 4 through 6) and WR074086 (as represented by compound 14885 on vertical axes of FIGS. 4 through 6) against three strains of P. falciparum were investigated using isobologram analysis. First, the IC50s of each compound were determined as described above.
compound,measurement,setting,value
CCCCN(CCCC)CC(O)c1cc(-c2ccc(Cl)cc2)nc2cc(Cl)c(C)cc12 (stereo not drawn) [WR069878],Outcome,"AMRU1 strain of P. vivax; 0.625 mg/kg/day x 3 days, primary treatment",Failure
same,Outcome,"AMRU1 strain of P. vivax; 2.5 mg/kg/day x 3 days, primary treatment",Failure
same,Outcome,"AMRU1 strain of P. vivax; 10 mg/kg/day x 3 days, primary treatment, number in brackets = days before recrudescence, 10 mg/kg/day",Clear (7) and Cure
same,Outcome,"AMRU1 strain of P. vivax; 20 mg/kg/day x 1 day, retreatment, one monkey per line, number in brackets = days before recrudescence, 20 mg/kg/day",Cure and Clear (8)
same,Outcome,"AMRU1 strain of P. vivax; 40 mg/kg/day x 3 days, retreatment",Cure
same,Outcome,"AMRU1 strain of P. vivax; 80 mg/kg/day x 1 day, retreatment, number in brackets = days before recrudescence, 80 mg/kg/day",Clear (11) and Cure
same,Outcome in P. vivax infections,AMRU1 strain of P. vivax; three day regimen,cures P. vivax infections
same,Mean peak concentration,[1],65 ng/mL
same,Plasma conc on day 1 (ng/ml) 2 h,"[1]; day 1, 2 h",38 ng/mL
same,Plasma conc on day 1 (ng/ml) 24 h,"[1]; day 1, 24 h",16 ng/mL
same,Plasma conc. on day 7 (ng/ml) 2 h,"[1]; day 7, 2 h",91 ng/mL
same,Plasma conc. on day 7 (ng/ml) 24 h,"[1]; day 7, 24 h",40 ng/mL
same,Photo Irritant Factor (PIF),[2],> 100
same,IC90 against TM90C2A,P. falciparum TM90C2A,16 ng/mL
same,Activity against P. falciparum TM91C235 (IC50 in ng/ml),P. falciparum TM91C235,1.5 ng/mL
same,TM91C235 IC90,P. falciparum TM91C235; Table 2,3.3 ng/mL
same,IC90 against TM91C235,P. falciparum TM91C235; text b26,11.7 ng/mL
same,IC90 against D6,P. falciparum D6,5.3 ng/mL
